Conditions: Liquid, Vibrating tube method

CC(C)CCCCCCCOC(=O)c1ccccc1C(=O)OCCCCCCCC(C)C
Conditions	mass density [kg/m3]
313.15 K, 100 kPa	952.6
313.15 K, 200 kPa	952.6
313.15 K, 400 kPa	952.8
313.15 K, 620 kPa	952.9
313.15 K, 800 kPa	953
313.15 K, 1030 kPa	953.1
313.15 K, 2010 kPa	953.7
313.15 K, 3000 kPa	954.3
313.15 K, 4000 kPa	955
313.15 K, 5020 kPa	955.5
313.15 K, 5990 kPa	956.2
313.15 K, 7030 kPa	956.7
313.15 K, 8000 kPa	957.4
313.15 K, 9020 kPa	957.9
313.15 K, 10010 kPa	958.5
313.15 K, 15010 kPa	961.4
313.15 K, 20000 kPa	964.2
313.15 K, 25030 kPa	967
313.15 K, 30000 kPa	969.7
313.15 K, 35020 kPa	972.2
313.15 K, 40020 kPa	974.8
313.15 K, 45010 kPa	977.2
313.15 K, 49970 kPa	979.7
313.15 K, 55000 kPa	982
313.15 K, 59980 kPa	984.4
313.15 K, 64970 kPa	986.6
323.15 K, 100 kPa	945.4
323.15 K, 210 kPa	945.5
323.15 K, 400 kPa	945.6
323.15 K, 600 kPa	945.7
323.15 K, 800 kPa	945.9
323.15 K, 1000 kPa	946
323.15 K, 2000 kPa	946.6
323.15 K, 3030 kPa	947.2
323.15 K, 4030 kPa	947.9
323.15 K, 5020 kPa	948.5
323.15 K, 6010 kPa	949.1
323.15 K, 7000 kPa	949.7
323.15 K, 8000 kPa	950.3
323.15 K, 9010 kPa	950.9
323.15 K, 10020 kPa	951.6
323.15 K, 15000 kPa	954.5
323.15 K, 20010 kPa	957.5
323.15 K, 25030 kPa	960.3
323.15 K, 30010 kPa	963.2
323.15 K, 34970 kPa	965.8
323.15 K, 40000 kPa	968.5
323.15 K, 45000 kPa	970.9
323.15 K, 49980 kPa	973.5
323.15 K, 54980 kPa	975.8
323.15 K, 60000 kPa	978.3
323.15 K, 65000 kPa	980.6
333.15 K, 100 kPa	938.3
333.15 K, 200 kPa	938.4
333.15 K, 400 kPa	938.5
333.15 K, 630 kPa	938.7
333.15 K, 800 kPa	938.8
333.15 K, 1000 kPa	938.9
333.15 K, 2010 kPa	939.6
333.15 K, 3000 kPa	940.2
333.15 K, 4000 kPa	940.9
333.15 K, 5000 kPa	941.5
333.15 K, 6000 kPa	942.2
333.15 K, 7030 kPa	942.8
333.15 K, 7980 kPa	943.5
333.15 K, 9010 kPa	944.1
333.15 K, 10030 kPa	944.8
333.15 K, 14990 kPa	947.9
333.15 K, 20000 kPa	951
333.15 K, 25000 kPa	953.8
333.15 K, 30020 kPa	956.7
333.15 K, 34990 kPa	959.4
333.15 K, 39970 kPa	962.2
333.15 K, 45020 kPa	964.8
333.15 K, 50000 kPa	967.4
333.15 K, 55020 kPa	969.8
333.15 K, 60000 kPa	972.3
333.15 K, 65000 kPa	974.7
343.15 K, 100 kPa	931.2
343.15 K, 220 kPa	931.3
343.15 K, 430 kPa	931.5
343.15 K, 610 kPa	931.6
343.15 K, 810 kPa	931.8
343.15 K, 1000 kPa	931.9
343.15 K, 2000 kPa	932.6
343.15 K, 3000 kPa	933.3
343.15 K, 3980 kPa	934
343.15 K, 5010 kPa	934.6
343.15 K, 5980 kPa	935.3
343.15 K, 7000 kPa	936
343.15 K, 7990 kPa	936.6
343.15 K, 9020 kPa	937.3
343.15 K, 9980 kPa	937.9
343.15 K, 15010 kPa	941.2
343.15 K, 19990 kPa	944.3
343.15 K, 25010 kPa	947.4
343.15 K, 29980 kPa	950.4
343.15 K, 35030 kPa	953.3
343.15 K, 40030 kPa	956.1
343.15 K, 45010 kPa	958.7
343.15 K, 50050 kPa	961.4
343.15 K, 55000 kPa	964
343.15 K, 60000 kPa	966.5
343.15 K, 65020 kPa	968.9
353.15 K, 100 kPa	924.2
353.15 K, 200 kPa	924.3
353.15 K, 410 kPa	924.5
353.15 K, 630 kPa	924.6
353.15 K, 800 kPa	924.8
353.15 K, 1010 kPa	924.9
353.15 K, 2000 kPa	925.6
353.15 K, 3000 kPa	926.3
353.15 K, 3980 kPa	927
353.15 K, 4990 kPa	927.7
353.15 K, 6000 kPa	928.4
353.15 K, 7000 kPa	929.1
353.15 K, 8010 kPa	929.8
353.15 K, 9000 kPa	930.5
353.15 K, 10010 kPa	931.2
353.15 K, 15040 kPa	934.6
353.15 K, 20000 kPa	937.9
353.15 K, 24970 kPa	941
353.15 K, 29980 kPa	944.1
353.15 K, 35010 kPa	947.1
353.15 K, 40000 kPa	950
353.15 K, 45000 kPa	952.7
353.15 K, 49990 kPa	955.5
353.15 K, 55000 kPa	958.1
353.15 K, 60010 kPa	960.7
353.15 K, 65020 kPa	963.2
363.15 K, 100 kPa	917.2
363.15 K, 200 kPa	917.3
363.15 K, 420 kPa	917.4
363.15 K, 600 kPa	917.6
363.15 K, 800 kPa	917.7
363.15 K, 990 kPa	917.9
363.15 K, 2000 kPa	918.6
363.15 K, 2980 kPa	919.4
363.15 K, 3960 kPa	920.1
363.15 K, 4970 kPa	920.9
363.15 K, 5990 kPa	921.6
363.15 K, 7020 kPa	922.3
363.15 K, 7980 kPa	923
363.15 K, 9030 kPa	923.8
363.15 K, 10000 kPa	924.5
363.15 K, 15000 kPa	928
363.15 K, 19990 kPa	931.4
363.15 K, 25010 kPa	934.7
363.15 K, 30020 kPa	937.9
363.15 K, 34980 kPa	940.9
363.15 K, 39990 kPa	943.9
363.15 K, 44980 kPa	946.8
363.15 K, 49990 kPa	949.6
363.15 K, 55000 kPa	952.3
363.15 K, 60040 kPa	955
363.15 K, 64990 kPa	957.6
